PMC8248988, “A signal capture and proofreading mechanism for the KDEL-receptor explains selectivity and dynamic range in ER retrieval” (eLife, 2021)

Legend:
human KDELR1 N54R = molecular target: T1, human KDELR1 N54R (Homo sapiens, UniProt P24390, N54R); test: ER retrieval assay, KDELR1 N54R-GFP; type: cell-based; conditions: COS-7 cells
T1 construct: expressed in transfected cells; host or cells: COS-7
Source text: (§1) To create KDELR1-GFP and KDELR2-GFP, the reading frames for Homo sapiens KDELR1 (Uniprot: P24390) and KDELR2 (Uniprot: P33947) were cloned into the pEF5/FRT low level mammalian expression vector with a C-terminal 20 amino acid linker made up of 5 copies of Gly-Ser-Ser-Ser followed by GFP. Specific point mutations were introduced using the Quickchange protocol (Stratagene) and are described in the key resources table and figures. To create the mScarlet-KDEL^sec ligand construct, mScarlet with an N-terminal hGH signal peptide and the 16 C-terminal residues of human BiP at its C-terminus, containing the KDEL signal, was cloned into the pcDNA3.1 vector. […] The Golgi marker protein TGN46 was detected by antibody (sheep anti-TGN46 AHP500G; AbD Serotec) and an Alexa 647 conjugated secondary anti-sheep secondary (A-21448, Invitrogen). In Figure 1d and e, endogenous KDELR was detected by antibody (mouse anti-KDELR ADI-VAA-PT048; Enzo Life Sciences) and Alexa 488 conjugated anti-mouse secondary antibody (A-21202, Invitrogen). For retrieval assays in other figures, KDELR-GFP fusion proteins were directly detected by fluorescence. The mScarlet-xDEL fusion proteins were directly detected by fluorescence. […] The fraction of KDEL receptor in the Golgi apparatus was calculated by dividing the Golgi signal by the total cell signal. […]

human KDELR1 D50N/N54R = molecular target: T2, human KDELR1 D50N/N54R (Homo sapiens, UniProt P24390, D50N/N54R); test: ER retrieval assay, KDELR1 D50N/N54R-GFP; type: cell-based; conditions: COS-7 cells
T2 construct: expressed in transfected cells; host or cells: COS-7
T2 sequence (P24390 whole entry D50N/N54R): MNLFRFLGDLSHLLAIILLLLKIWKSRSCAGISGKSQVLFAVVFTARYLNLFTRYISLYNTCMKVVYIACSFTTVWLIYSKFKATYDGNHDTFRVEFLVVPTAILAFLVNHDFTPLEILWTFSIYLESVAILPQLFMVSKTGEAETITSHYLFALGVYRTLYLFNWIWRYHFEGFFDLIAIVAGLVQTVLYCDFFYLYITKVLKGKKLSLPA
Source text: as §1

T1 sequence (P24390 whole entry N54R): as the sequence (P24390 whole entry D50N/N54R) above, with N50D counted along it

ligand-induced receptor retrieval to the ER (in words) (human KDELR1 D50N/N54R): gave a response
Substance: ADEL [pcDNA3.1 hGHss-mScarlet-H. sapiens BiP639-654K651A (ADEL^SEC), secreted mScarlet fusion with human BiP C-terminus, ADEL signal]
ligand-induced receptor retrieval to the ER (in words) (human KDELR1 N54R): did not result in ADEL or DDEL recognition
